# Laboratory results from patent US20230210857A1, “RESPIRATORY STIMULANT PARENTERAL FORMULATIONS” (Enalare Therapeutics Inc., priority 2021, published 2023).
# Legend:
# Type in all cases: physicochemical
# [1] = Stability as a function of pH, narrow range pH 2-3.6 (1 mg/mL in ~10 mM citric acid/glycine buffers)
# Description: Accordingly, the stability of the compound was evaluated in the pH range 2-3.6.
# Methodology: Buffer solutions containing ˜10 mM each of citric acid and glycine in the pH range 2-3.6 were prepared by titrating 250 mL of a single stock containing both buffer agents with 1N NaOH/1N HCl and removing 50 mL aliquots at predetermined pH values. Solutions at 1 mg/mL were prepared in the buffers by dissolving ˜25 mg of compound in ˜23 mL of a given buffer, adjusting the pH to the target and making up the volume to 25.0 mL in a volumetric flask.
# Each of the buffered solutions was filtered through a 0.2 μm polyether sulfone syringe filter into a volumetric flask previously rinsed with 70% ethanol and dried in a laminar flow hood. Following filtration, each buffered solution was split into 9 aliquots in 5 mL serum vials previously rinsed with 70% ethanol and dried in a laminar flow hood. Filtration and preparation of aliquots were performed in a laminar flow hood. Of the nine aliquots, three aliquots were stored at each 40° C. and 60° C., two aliquots were stored at 25° C. and one aliquot was submitted for T0 testing. Samples were evaluated for pH, assay and related substances at T0 and, following 1 week, 2 weeks and 4 weeks of storage at 40° C. and 60° C. Samples stored at 25° C. served as controls to be analyzed if necessary.
# This means that any increase in the pH of the formulation leads to an improvement in stability within the pH range in which an aqueous formulation is feasible.
# [2] = Stability as a function of pH 2-6 (1 mg/mL, 0.25 mg/mL at pH 6, in ~10 mM citric acid/glycine buffers)
# Excerpt: Thus, the inventors believe that the solubility of the drug becomes inadequate for the intended product concentration above about pH 3.6. However, the drug product will be diluted prior to infusion and then intravenously infused slowly, and such a low pH is unlikely to present a safety or patient comfort issue, but stability of the drug in solution could be an issue at such a low pH. The purpose of this experiment was to assess the stability of the drug as a function of pH.
# A key consideration in such an experiment is the concentration of drug and buffer used. Use of a buffer is essential since the data is meaningless if the pH shifts dramatically during the experiment. However, it is desirable to keep the buffer at minimal strength to minimize the impact of buffer catalysis. Buffer strength can be minimized by keeping the drug concentration low. Keeping the drug concentration low also minimizes confounding the data with solubility limits (i.e. the drug precipitating out of solution).
# Methodology: Buffer solutions containing ˜10 mM each of citric acid and glycine in the pH range 2-6 were prepared by titrating 250 mL of a single stock containing both buffer agents with 1N NaOH/1N HCl and removing 50 mL aliquots at predetermined pH values. Solutions at 1 mg/mL were prepared in buffers of pH 2-5 by dissolving ˜25 mg of Compounds having the active agent (N-(4,6-Bis-n-propylamino-[1,3,5]triazin-2-yl)-O,N-dimethyl-hydroxylamine) H2SO4 in ˜23 mL of a given buffer, adjusting the pH to the target and making up the volume to 25.0 mL in a volumetric flask. The solution at pH 6 was prepared similarly but at a lower drug concentration of 0.25 mg/mL using 6.68 mg of Compounds having the active agent (N-(4,6-Bis-n-propylamino-[1,3,5]triazin-2-yl)-O,N-dimethyl-hydroxylamine) H2SO4.
# Each of the buffered solutions were filtered through a 0.2 μm polyether sulfone syringe filter into a volumetric flask, which had been previously rinsed with 70% ethanol and dried in a laminar flow hood. Following filtration, each buffered solution was split into 10 aliquots (9 aliquots of 2.5 mL each and 1 aliquot of 2 mL) in 5 mL serum vials previously rinsed with 70% ethanol and dried in a laminar flow hood. Filtration and preparation of aliquots were performed in a laminar flow hood. The 2 mL aliquot of each buffered solution was submitted for T0 analysis (HPLC assay and related substances). Of the nine 2.5 mL aliquots, three aliquots were stored at each 40° C. and 60° C., two aliquots were stored at 25° C. and one aliquot was stored at −70° C. Samples stored at 40° C. and at 60° C. were evaluated for physical appearance, pH, assay and related substances after 1 week, 2 weeks and 4 weeks of storage. Samples at 25° C. and −70° C. served as controls to be analyzed if necessary.
# The pH values for all the samples remained relatively constant for up to 4 weeks at both storage temperatures.
# [3] = Drug substance stability (API in closed Type I glass vials)
# Description: Methodology: Approximately 100 mg of the API (Lot 009MSB058) were stored at each of 40° C. and 60° C. in closed Type I glass vials. Samples were analyzed for appearance and percent purity at T0 and after 1 week, 2 weeks and 4 weeks of storage.
# Visually, there were no signs of degradation (i.e. discoloration etc.).
compound,measurement,setting,value
"CCCNc1nc(NCCC)nc(N(C)OC)n1 [active agent, N-(4,6-Bis-n-propylamino-[1,3,5]triazin-2-yl)-O,N-dimethyl-hydroxylamine]",Assay,"[1]; target pH 2.0, 60° C. 4 wk",0.786
same,Impurities,"[1]; target pH 2.7, 60° C. 4 wk",3.9
same,pH,"[1]; target pH 3.0, 60° C. 4 wk",3.00
same,Assay,"[1]; target pH 3.6, 60° C. 2 wk",0.958
same,solution stability versus pH (in words),"[2]; assay and impurities data, pH 2 compared to pH 3-6",significantly less stable at pH 2
same,Impurities,"[2]; target pH 2, 40° C. 2 wk",1.48%
same,Impurities,"[2]; target pH 2, 40° C. 4 wk",2.49%
same,Impurities,"[2]; target pH 2, 60° C. 1 wk",3.83%
same,Impurities,"[2]; target pH 2, 60° C. 2 wk",9.89%
same,Impurities,"[2]; target pH 2, 60° C. 4 wk",14.34%
same,Impurities,"[2]; target pH 3, 40° C. 2 wk",0.19%
same,Impurities,"[2]; target pH 3, 40° C. 4 wk",0.41%
same,Impurities,"[2]; target pH 3, 60° C. 1 wk",0.71%
same,Impurities,"[2]; target pH 3, 60° C. 4 wk",2.19%
same,Impurities,"[2]; target pH 4, 40° C. 2 wk",0.17%
same,Impurities,"[2]; target pH 4, 40° C. 4 wk",0.22%
same,Impurities,"[2]; target pH 4, 60° C. 2 wk",0.52%
same,Impurities,"[2]; target pH 4, 60° C. 4 wk",1.02%
same,Impurities,"[2]; target pH 5, 60° C. 2 wk",0.62%
same,Impurities,"[2]; target pH 5, 60° C. 4 wk",1.10%
same,Impurities,"[2]; target pH 6, 40° C. 2 wk",0.25%
same,Impurities,"[2]; target pH 6, 40° C. 4 wk",0.28%
same,Impurities,"[2]; target pH 6, 60° C. 4 wk",1.65%
same,drug substance stability (in words),[3]; 4 weeks even at 60° C.,quite stable
same,Appearance,"[3]; 40° C., T = 1 week",White
same,Purity,"[3]; 40° C., T = 1 week",99.92%
same,Related Substances (Total),"[3]; 40° C., T = 1 week",Total 0.08
same,Appearance,"[3]; 40° C., T = 2 week",White
same,Purity,"[3]; 40° C., T = 2 week",99.90%
same,Related Substances (Total),"[3]; 40° C., T = 2 week",Total 0.10
same,Appearance,"[3]; 40° C., T = 4 week",White
same,Purity,"[3]; 40° C., T = 4 week",100.00%
same,Appearance,"[3]; 60° C., T = 1 week",powder
same,Purity,"[3]; 60° C., T = 1 week",99.76%
same,Related Substances (Total),"[3]; 60° C., T = 1 week",Total 0.24
same,Appearance,"[3]; 60° C., T = 2 week",powder
same,Purity,"[3]; 60° C., T = 2 week",100.00%
same,Appearance,"[3]; 60° C., T = 4 week",powder
same,Purity,"[3]; 60° C., T = 4 week",100.00%
same,Appearance,[3]; T = 0,White
same,Purity,[3]; T = 0,100.00%
